#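 A five-concentration, 48-hour dose response in 96-well plates underlies each endpoint, interpolated linearly between surrounding concentrations. GI50 marks 50% less growth. TGI is the concentration that stops growth completely.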
# Legend:
# Assay in all cases: inhibition of tumour cell growth, NCI panel, 48 h
# [1] = system: OVCAR-4 ovarian
# [2] = system: EKVX NSCLC
# [3] = system: HS 578T breast
# [4] = system: CCRF-CEM leukemia
# [5] = system: PC-3 prostate
# [6] = system: LOX IMVI melanoma
# [7] = system: MALME-3M melanoma
# [8] = system: NCI-H460 lung
# [9] = system: BT-549 breast
# [10] = system: COLO 205 colon
# [11] = system: SK-OV-3 ovarian
# [12] = system: MDA-MB-231 breast
# [13] = system: KM12 colon
# [14] = system: SF-295 CNS
# [15] = system: T-47D breast
# [16] = system: RXF 393 renal
# [17] = system: UACC-257 melanoma
# [18] = system: IGROV1 ovarian
# [19] = system: RPMI-8226 leukemia
# [20] = system: UACC-62 melanoma
# [21] = system: MOLT-4 leukemia
# [22] = system: CAKI-1 renal
# [23] = system: SF-268 CNS
# [24] = system: NCI-H23 lung
# [25] = system: SNB-75 CNS
# [26] = system: SK-MEL-5 melanoma
# [27] = system: HOP-62 NSCLC
# [28] = system: SR leukemia
# [29] = system: HCT-116 colon
smiles,measurement,setting,value
CCc1ccc(/C=C2/SC(=S)NC2=O)cc1,GI50,[1],20 µM
same,TGI,[1],> 93.3 µM
same,GI50,[2],21.9 µM
same,TGI,[2],73.2 µM
same,GI50,[3],16.3 µM
same,TGI,[3],70.6 µM
same,GI50,[4],22.6 µM
same,TGI,[4],> 80.4 µM
same,GI50,[5],23.3 µM
same,TGI,[5],> 100 µM
same,GI50,[6],22.4 µM
same,TGI,[6],> 71.5 µM
same,GI50,[7],23.2 µM
same,TGI,[7],> 80.6 µM
same,GI50,[8],20.7 µM
same,TGI,[8],54.8 µM
same,GI50,[9],20.9 µM
same,TGI,[9],58.2 µM
same,GI50,[10],18.3 µM
same,TGI,[10],33.7 µM
same,GI50,[11],24.6 µM
same,TGI,[11],74.9 µM
same,GI50,[12],18.9 µM
same,TGI,[12],46.7 µM
same,GI50,[13],25.1 µM
same,TGI,[13],> 77.3 µM
same,GI50,[14],18.2 µM
same,TGI,[14],56.8 µM
same,GI50,[15],23.5 µM
same,TGI,[15],89.2 µM
same,GI50,[16],18.9 µM
same,TGI,[16],55.7 µM
same,GI50,[17],17.7 µM
same,TGI,[17],61.3 µM
same,GI50,[18],37.5 µM
same,TGI,[18],> 100 µM
same,GI50,[19],16.5 µM
same,TGI,[19],> 76 µM
same,GI50,[20],12.3 µM
same,TGI,[20],28.9 µM
same,GI50,[21],23.5 µM
same,TGI,[21],84.3 µM
same,GI50,[22],24 µM
same,TGI,[22],> 81.5 µM
same,GI50,[23],24.5 µM
same,TGI,[23],> 100 µM
same,GI50,[24],18.6 µM
same,TGI,[24],47 µM
same,GI50,[25],21.7 µM
same,TGI,[25],> 100 µM
same,GI50,[26],14.9 µM
same,TGI,[26],37.6 µM
same,GI50,[27],25.7 µM
same,TGI,[27],78.2 µM
same,GI50,[28],19.4 µM
same,TGI,[28],> 84.9 µM
same,GI50,[29],21 µM
same,TGI,[29],59.5 µM

# — PubChem BioAssay (NCI)
